In ChEMBL document CHEMBL4152373 (Bioorg Med Chem, 2018):

Key:
[1] = biological target: T1, Gastric inhibitory polypeptide receptor (Homo sapiens) (UniProt P48546); conditions: 10 uM
T1 sequence (whole entry): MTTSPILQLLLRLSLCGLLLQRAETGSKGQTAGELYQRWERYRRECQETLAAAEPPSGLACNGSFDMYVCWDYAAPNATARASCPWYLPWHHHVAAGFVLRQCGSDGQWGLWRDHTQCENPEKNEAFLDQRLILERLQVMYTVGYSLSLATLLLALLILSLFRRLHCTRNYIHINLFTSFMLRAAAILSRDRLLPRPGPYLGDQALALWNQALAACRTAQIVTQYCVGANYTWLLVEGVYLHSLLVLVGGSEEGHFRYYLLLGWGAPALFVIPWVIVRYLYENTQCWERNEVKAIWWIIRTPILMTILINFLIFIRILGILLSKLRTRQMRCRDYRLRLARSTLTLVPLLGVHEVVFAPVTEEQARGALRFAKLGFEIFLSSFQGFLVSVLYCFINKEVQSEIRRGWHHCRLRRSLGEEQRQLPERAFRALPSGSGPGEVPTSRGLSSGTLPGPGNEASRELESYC
Description: Antagonist activity at GIPR (unknown origin) at 10 uM by cAMP accumulation based assay relative to control

[2] = Half life in Sprague-Dawley rat at 1 mg/kg, iv administered as single dose by LC-MS/MS analysis; type: ADME, organism-based; conditions: in vivo
[3] = biological target: T2, Glucose-dependent insulinotropic receptor (Homo sapiens) (UniProt Q8TDV5); experiment: Antagonist activity at GPR119 (unknown origin) at 10 uM by cAMP accumulation based assay relative to control; type: functional
T2 sequence (whole entry): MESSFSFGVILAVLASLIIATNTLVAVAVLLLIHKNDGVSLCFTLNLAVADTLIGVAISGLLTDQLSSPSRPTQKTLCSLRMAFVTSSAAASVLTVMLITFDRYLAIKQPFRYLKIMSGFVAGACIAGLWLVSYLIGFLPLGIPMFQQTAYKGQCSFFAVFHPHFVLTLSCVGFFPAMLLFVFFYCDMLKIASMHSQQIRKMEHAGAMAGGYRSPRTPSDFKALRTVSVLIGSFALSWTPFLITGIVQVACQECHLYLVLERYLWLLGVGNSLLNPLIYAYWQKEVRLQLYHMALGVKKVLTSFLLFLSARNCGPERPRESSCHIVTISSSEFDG

[4] = biological target: T2, Glucose-dependent insulinotropic receptor (Homo sapiens); experiment: Agonist activity at GPR119 (unknown origin) at 10 uM by cAMP accumulation based assay relative to control; type: functional
[5] = biological target: T3, Free fatty acid receptor 3 (Homo sapiens) (UniProt O14843); conditions: 10 uM
T3 sequence (whole entry): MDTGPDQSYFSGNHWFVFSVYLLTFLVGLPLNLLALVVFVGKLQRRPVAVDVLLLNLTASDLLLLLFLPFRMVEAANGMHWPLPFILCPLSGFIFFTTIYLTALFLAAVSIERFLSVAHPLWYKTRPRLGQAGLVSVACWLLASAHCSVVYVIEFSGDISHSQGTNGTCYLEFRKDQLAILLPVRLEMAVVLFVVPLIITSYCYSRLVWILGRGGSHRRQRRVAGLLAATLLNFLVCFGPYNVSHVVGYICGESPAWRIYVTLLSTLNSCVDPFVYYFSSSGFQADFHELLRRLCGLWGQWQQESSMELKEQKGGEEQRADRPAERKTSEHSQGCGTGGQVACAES

inhibition [1]: < 10%
half-life [2]: 240 min
inhibition [3]: < 10%
Activity [4]: < 10%
inhibition [5]: < 10%
SMILES: COc1ccc(-c2ccccc2-c2csc(N(C(=O)[C@@H](CC(=O)O)CC3CCCC3)C3CC3)n2)cn1
